Experimental data: US20240115557A1, “INHIBITORS OF RNA-GUIDED NUCLEASES AND USES THEREOF” (The Brigham and Women's Hospital, Inc., priority 2022, published 2024)

Biological target: SpCas9 (Streptococcus pyogenes serotype M1, UniProt Q99ZW2)
Experiment: eGFP disruption assay, SpCas9, U2OS.eGFP.PEST cells
Assay type: cell-based
Conditions: for Normalized Z rep1 / Z score Rep1: replicate 1; for SpCas9 eGFP disruption Rep1: replicate 1, raw readout; for Normalized Z rep2 / Z socre Rep2: replicate 2; for SpCas9 eGFP disruption Rep2: replicate 2, raw readout
Outline: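 Rescue of eGFP signal lost through Cas9-induced NHEJ indels serves as the inhibition read-out, after 24 h compound exposure (20 μM for hits, variable for dose-response). Editing was delivered by nucleofection into U2OS.eGFP.PEST cells as SpCas9/gRNA plasmids (300/30 ng) or RNP (10/12 pmol). Toxic and autofluorescent compounds were excluded.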

[1] = Cas9 = lower control, Ctrl = upper control
[2] = normalized, lower control about 0, upper control about 1

Chain of SpCas9 (Q99ZW2 whole entry): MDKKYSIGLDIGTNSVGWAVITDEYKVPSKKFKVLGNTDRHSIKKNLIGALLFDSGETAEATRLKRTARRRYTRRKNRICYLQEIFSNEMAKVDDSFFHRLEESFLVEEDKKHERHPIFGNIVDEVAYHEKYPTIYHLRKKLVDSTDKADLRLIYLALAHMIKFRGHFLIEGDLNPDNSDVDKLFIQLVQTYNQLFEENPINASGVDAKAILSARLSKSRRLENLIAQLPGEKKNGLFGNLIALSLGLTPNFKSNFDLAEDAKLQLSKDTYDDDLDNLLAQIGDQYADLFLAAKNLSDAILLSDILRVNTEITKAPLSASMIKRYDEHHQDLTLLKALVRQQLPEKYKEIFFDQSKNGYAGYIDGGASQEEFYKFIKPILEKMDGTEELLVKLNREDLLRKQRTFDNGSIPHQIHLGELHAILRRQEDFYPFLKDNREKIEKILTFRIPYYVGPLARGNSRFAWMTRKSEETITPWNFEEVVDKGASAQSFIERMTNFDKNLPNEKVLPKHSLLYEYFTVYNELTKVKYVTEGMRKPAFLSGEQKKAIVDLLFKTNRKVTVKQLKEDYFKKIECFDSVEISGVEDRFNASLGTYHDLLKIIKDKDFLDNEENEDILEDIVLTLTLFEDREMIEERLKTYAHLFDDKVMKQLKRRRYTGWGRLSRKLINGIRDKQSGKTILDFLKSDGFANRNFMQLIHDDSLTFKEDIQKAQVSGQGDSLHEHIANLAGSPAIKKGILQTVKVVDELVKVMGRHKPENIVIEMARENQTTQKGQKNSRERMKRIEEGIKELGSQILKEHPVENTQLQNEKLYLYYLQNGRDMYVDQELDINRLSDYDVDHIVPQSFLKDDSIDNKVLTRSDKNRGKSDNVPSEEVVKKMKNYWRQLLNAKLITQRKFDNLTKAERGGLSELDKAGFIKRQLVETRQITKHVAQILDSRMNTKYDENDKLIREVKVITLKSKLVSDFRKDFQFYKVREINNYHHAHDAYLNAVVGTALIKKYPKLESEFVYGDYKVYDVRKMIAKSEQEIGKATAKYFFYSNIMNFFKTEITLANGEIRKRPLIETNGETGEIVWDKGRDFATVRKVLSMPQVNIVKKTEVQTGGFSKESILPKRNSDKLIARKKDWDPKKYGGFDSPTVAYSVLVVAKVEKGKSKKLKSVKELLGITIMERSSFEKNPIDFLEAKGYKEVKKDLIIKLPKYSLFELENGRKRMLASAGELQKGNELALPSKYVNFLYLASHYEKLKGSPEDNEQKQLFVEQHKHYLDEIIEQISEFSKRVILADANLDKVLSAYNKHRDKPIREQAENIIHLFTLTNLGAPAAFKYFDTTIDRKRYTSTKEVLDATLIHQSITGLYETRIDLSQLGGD

Structure (SMILES)	Normalized Z rep1	Z score Rep1	SpCas9 eGFP disruption Rep1	Normalized Z rep2	Z socre Rep2	SpCas9 eGFP disruption Rep2	EC50 (EC50 in eGFP disruption assay, U2OS.eGFP.PEST, SpCas9 plasmid and sgRNA plasmid, 0.3 uM to 20 uM, 24 h (FIG. 44A/C)) [µM]	EC50 (EC50 in the eGFP disruption assay, from three independent experiments) [µM]	Potency relative to BRD0539 (more potent than BRD0539) [fold]	SpCas9 eGFP disruption Rep1 [1]	Normalized Z rep1 [2]	SpCas9 eGFP disruption Rep2 [1]	Normalized Z rep2 [2]
Cc1nc2ccccc2n1Cc1nnc2n1N=C(N)CS2 [Compound D727-0339]	−0.25	−1.83	60.982	−0.15	−1.41	58.84	–	–	–	–	–	–	–
Nc1c(C(=O)N2CCCCC2)sc(=S)n1Cc1ccccc1 [Compound F128-0042]	−0.22	−1.57	61.817	−0.36	−3.35	52.985	–	–	–	–	–	–	–
CCN(Cc1ccccc1)c1ccc(NS(=O)(=O)c2ccc(OC)cc2)cc1C(=O)O [Compound F294-0003]	−0.48	−3.46	55.595	−0.10	−0.96	60.198	–	–	–	–	–	–	–
Cc1ccccc1OCc1nn2c(C(C)C)nnc2s1 [Compound D727-0350]	−0.47	−3.41	55.746	−0.04	−0.36	61.985	–	–	–	–	–	–	–
CS(=O)(=O)Nc1cnc(N2CCC(C(N)=O)(N3CCCCC3)CC2)c(C(=O)O)c1 [Compound F293-0183]	−0.19	−1.40	62.398	−0.33	−3.08	53.8	–	–	–	–	–	–	–
O=C(CCS(=O)(=O)c1ccc(Cl)cc1)Nc1nc(-c2ccncc2)cs1 [BRD7586]	–	–	–	–	–	–	5.55	6.2 ± 1.2	~2	–	–	–	–
NC(=O)c1sc(=S)n2c1[nH]c(=O)c1ccc(Cl)cc12 [Compound F083-0067]	−0.09	−0.66	64.842	−0.23	−2.14	56.626	–	–	–	–	–	–	–
c1ccc(Cc2nn3c(-c4cccnc4)nnc3s2)cc1 [Compound D727-0066]	−0.11	−0.78	64.43	−0.15	−1.42	58.807	–	–	–	–	–	–	–
CN(C)S(=O)(=O)Nc1cnc(N2CCC(CCN3CCCCC3)CC2)c(C(=O)O)c1 [Compound F293-0962]	−0.18	−1.30	62.732	−0.33	−3.10	53.726	–	–	–	–	–	–	–
CN(C)S(=O)(=O)Nc1ccc(N2CCCC(CN3CCCC3)C2)c(C(=O)O)c1 (stereo not drawn) [Compound F294-0983]	−0.40	−2.90	57.443	−0.35	−3.23	53.339	–	–	–	–	–	–	–
Cc1ccccc1OCc1nn2c(C(C)(C)C)nnc2s1 [Compound D727-0351]	–	0.29	–	–	1.32	–	–	–	–	67.967	0.04	67.06	0.14
O=C(O)c1cc(NS(=O)(=O)c2cc(F)ccc2F)cnc1N1CCC(N2CCCCC2)CC1 [Compound F293-0616]	−0.36	−2.62	58.357	−0.03	−0.30	62.171	–	–	–	–	–	–	–
NC(=O)c1c(NC(=O)COCc2cc(-c3ccc4c(c3)OCO4)on2)sc2c1CCCC2 [Compound E613-0091]	−0.19	−1.37	62.484	−0.32	−2.94	54.219	–	–	–	–	–	–	–
Fc1ccc(OCc2nn3c(-c4ccccn4)nnc3s2)cc1 [Compound D727-0525]	−0.49	−3.56	55.263	−0.39	−3.59	52.257	–	–	–	–	–	–	–
NS(=O)(=O)c1ccc(CCNC(=O)C2=Cc3sc4c(c3CS2)CCCC4)cc1 [Compound E722-2588]	−0.16	−1.14	63.246	0.13	1.22	66.773	–	–	–	–	–	–	–
CN(C)S(=O)(=O)Nc1ccc(N2CCC(CCN3CCOCC3)CC2)c(C(=O)O)c1 [Compound F294-0900]	−0.19	−1.40	62.393	−0.24	−2.23	56.357	–	–	–	–	–	–	–
O=C(O)c1ccc(N2CCN(c3ccccn3)CC2)c(NC(=O)c2ccc(Br)cc2)c1 [Compound F086-0619]	−0.11	−0.82	64.289	−0.20	−1.83	57.556	–	–	–	–	–	–	–
CC(C)NC(=O)CN1CCN(c2ccc(C(=O)O)cc2NC(=O)c2ccccc2Cl)CC1 [Compound F086-0028]	−0.55	−3.98	53.848	−0.21	−1.95	57.208	–	–	–	–	–	–	–
COCCCNC(=O)CN1CCN(c2ccc(C(=O)O)cc2NC(=O)c2ccccc2Cl)CC1 [Compound F086-0033]	−0.26	−1.88	60.787	−0.24	−2.23	56.359	–	–	–	–	–	–	–
CN(C)S(=O)(=O)Nc1ccc(N2CCC(C(N)=O)(N3CCCCC3)CC2)c(C(=O)O)c1 [Compound F294-0183]	−0.33	−2.37	59.182	−0.30	−2.83	54.549	–	–	–	–	–	–	–
CCCN1CCN(c2ccc(C(=O)O)cc2NC(=O)c2ccccc2Cl)CC1 [Compound F086-0004]	−0.17	−1.20	63.051	−0.29	−2.70	54.937	–	–	–	–	–	–	–
CS(=O)(=O)Nc1cnc(N2CCC(CCN3CCOCC3)CC2)c(C(=O)O)c1 [Compound F293-0898]	−0.44	−3.21	56.403	−0.11	−1.00	60.078	–	–	–	–	–	–	–
Brc1ccc(OCc2nn3c(-c4ccccn4)nnc3s2)cc1 [Compound D727-0522]	−0.12	−0.85	64.203	0.08	0.79	65.458	–	–	–	–	–	–	–
Nc1c(C(=O)NCC2CCCO2)sc(=S)n1-c1ccc(Cl)cc1 (stereo not drawn) [Compound F128-0076]	−0.08	−0.57	65.12	−0.12	−1.11	59.748	–	–	–	–	–	–	–
Nc1c(C(=O)N2CCCC2)sc(=S)n1Cc1ccccc1 [Compound F128-0041]	−0.05	−0.34	65.885	−0.15	−1.37	58.95	–	–	–	–	–	–	–
